According to US9981909B2 (Janssen Pharmaceutica NV, priority 2008, dated 2018):
Counter-ions that a name gives are not always drawn.

Molecular target: rat 5-HT7 receptor (Rattus norvegicus (Rat), UniProt P32305)
Assay: r5-HT7 binding assay, competitive radioligand binding with [3H]5-CT
Details: rat 5-HT7 receptor, HEK-293 membranes
Experimental: Receptor binding was performed using membrane fractions prepared from the HEK-293 cell line recombinantly expressing rat 5-HT7 receptors (NCBI accession NM_022938). Compound affinity for the rat 5-HT7 receptor subtype was evaluated by competitive radioligand binding assays using 5-carboxamido[^3H]tryptamine ([^3H]5-CT) (Amersham Biosciences, cat. 90000403) detection. HitHunter™ cAMP assays are in-vitro based competitive immunoassays. The assay was performed on the HEK-293 cell line stably transfected with r5-HT7 receptor. Cells were pre-incubated with test compounds for 10 minutes. For antagonist testing, the cells were then challenged with 100 nM 5-CT for 20 minutes. Cells were then lysed and cAMP measured according to manufacturers protocol (Amersham, cat. NET791250UC) or [^3H]mesulergine (Amersham, cat. TRK1041). The assay was performed on membranes prepared from HEK-293 cells stably transfected with h5-HT6. Following centrifugation, membranes were resuspended and incubated for 60 min at room temperature with 1.7 nM [^3H]LSD in the presence of increasing concentration of test compounds. Nonspecific binding was defined in the presence of 10 μM clozapine (Tocris, cat. TRK1068). Homogenized HEK-293 membranes expressing the human SERT were incubated in 50 mM Tris-HCl (pH 7.5), 120 mM NaCl, 5 mM KCl with [^3H]-citalopram (3 nM) with or without test compounds. Nonspecific binding was determined in the presence of 10 μM fluoxetine. Radioactivity readouts and Ki values were performed as previously described for r5-HT7. […] Compounds were assayed in their free form or as salts, as indicated in the Examples section above.

Chain of rat 5-HT7 receptor (P32305 1-435): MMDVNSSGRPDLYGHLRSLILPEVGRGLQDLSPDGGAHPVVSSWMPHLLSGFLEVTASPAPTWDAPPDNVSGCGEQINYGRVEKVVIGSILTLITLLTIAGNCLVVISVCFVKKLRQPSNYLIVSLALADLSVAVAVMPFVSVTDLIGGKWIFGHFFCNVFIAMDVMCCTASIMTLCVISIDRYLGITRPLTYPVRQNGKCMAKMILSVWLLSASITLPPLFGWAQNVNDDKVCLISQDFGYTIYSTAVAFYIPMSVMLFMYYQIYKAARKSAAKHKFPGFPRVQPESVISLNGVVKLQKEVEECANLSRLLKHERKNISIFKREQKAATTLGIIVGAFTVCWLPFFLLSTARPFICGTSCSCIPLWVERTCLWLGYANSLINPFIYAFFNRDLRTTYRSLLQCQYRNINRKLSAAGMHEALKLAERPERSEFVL

Compound | Ki
FC(F)(F)c1ccc(COc2ccc(Cl)cc2OC2CCCNC2)o1 (racemic) [Example 69, (±)-3-[5-Chloro-2-(5-trifluoromethyl-furan-2-ylmethoxy)-phenoxy]-piperidine] | 94 nM
Clc1ccc(OCc2ccccc2)c(OC2CCCNC2)c1 (racemic) [Example 70, (±)-3-(2-Benzyloxy-5-chloro-phenoxy)-piperidine] | 174 nM
FC(F)(F)c1cccc(COc2ccc(Cl)cc2OC2CCCNC2)c1 (racemic) [Example 71, (±)-3-[5-Chloro-2-(3-trifluoromethyl-benzyloxy)-phenoxy]-piperidine] | 143 nM
CN1CCC(Oc2cc(Br)ccc2OCc2cccc(Cl)c2)C1 (racemic) [Example 95, (±)-3-[5-Bromo-2-(3-chloro-benzyloxy)-phenoxy]-1-methyl-pyrrolidine] | 9 nM
COc1cccc(COc2ccc(Br)cc2OC2CCN(C)C2)c1 (racemic) [Example 96, (±)-3-[5-Bromo-2-(3-methoxy-benzyloxy)-phenoxy]-1-methyl-pyrrolidine] | 13 nM
CN1CCC(Oc2cc(Br)ccc2OCc2cccc(F)c2)C1 (racemic) [Example 97, (±)-3-[5-Bromo-2-(3-fluoro-benzyloxy)-phenoxy]-1-methyl-pyrrolidine] | 34 nM
CN1CCC(Oc2cc(Br)ccc2OCc2ccccc2)C1 (racemic) [Example 98, (±)-3-(2-Benzyloxy-5-bromo-phenoxy)-1-methyl-pyrrolidine] | 23 nM
CN1CCC(Oc2cc(Br)ccc2OCc2cccc(OS(C)(=O)=O)c2)C1 (racemic) [Example 99, (±)-Methanesulfonic acid 3-[4-bromo-2-(1-methyl-pyrrolidin-3-yloxy)-phenoxymethyl]-phenyl ester] | 5 nM
CN1CCC(Oc2ccccc2OCc2cccc(OS(C)(=O)=O)c2)C1 (racemic) [Example 100, (±)-Methanesulfonic acid 3-[2-(1-methyl-pyrrolidin-3-yloxy)-phenoxymethyl]-phenyl ester] | 150 nM
CC(Oc1ccc(Cl)cc1OC1CN(C(C)C)C1)c1cccc(C(F)(F)F)c1 (racemic) [Example 106, (±)-3-[5-Chloro-2-[1-(3-trifluoromethyl-phenyl)-ethoxy]-phenoxy]-1-isopropyl-azetidine] | 75 nM
CC(Oc1ccc(Cl)cc1OC1CN(C2CCC2)C1)c1cccc(C(F)(F)F)c1 (racemic) [Example 107, (±)-3-[5-Chloro-2-[1-(3-trifluoromethyl-phenyl)-ethoxy]-phenoxy]-1-cyclobutyl-azetidine] | 90 nM
CC(Oc1ccc(Cl)cc1OC1CNC1)c1ccccc1Cl (racemic) [Example 116, (±)-3-[5-Chloro-2-[1-(2-chloro-phenyl)-ethoxy]-phenoxy]-azetidine] | 68 nM
FC(F)(F)Oc1ccc(COc2ccc(Br)cc2OC2CNC2)cc1Cl [Example 11, 3-[5-Bromo-2-(3-chloro-4-trifluoromethoxy-benzyloxy)-phenoxy]-azetidine] | 53 nM
CN1CC(Oc2cc(Br)ccc2OCc2ccccc2Cl)C1 [Example 16, 3-[5-Bromo-2-(2-chloro-benzyloxy)-phenoxy]-1-methyl-azetidine] | 100 nM
CC(C)N1CC(Oc2cc(Br)ccc2OCc2cccc(F)c2)C1 [Example 20, 3-[5-Bromo-2-(3-fluoro-benzyloxy)-phenoxy]-1-isopropyl-azetidine] | 8 nM
Fc1cccc(COc2ccc(Br)cc2OC2CN(C3CCC3)C2)c1 [Example 21, 3-[5-Bromo-2-(3-fluoro-benzyloxy)-phenoxy]-1-cyclobutyl-azetidine] | 20 nM
Clc1cccc(COc2cc(Br)ccc2OC2CN(C3CCC3)C2)c1 [Example 23, 3-[4-Bromo-2-(3-chloro-benzyloxy)-phenoxy]-1-cyclobutyl-azetidine] | 121 nM
CC(C)N1CC(Oc2ccc(Br)cc2OCc2cccc(Cl)c2)C1 [Example 24, 3-[4-Bromo-2-(3-chloro-benzyloxy)-phenoxy]-1-isopropyl-azetidine] | 190 nM
Cc1cc(COc2ccc(Cl)cc2OC2CNC2)no1 [Example 30, 3-[2-(Azetidin-3-yloxy)-4-chloro-phenoxymethyl]-5-methyl-isoxazole] | 105 nM
FC(F)(F)Oc1ccc(COc2ccc(Cl)cc2OC2CNC2)cc1Cl [Example 41, 3-[5-Chloro-2-(3-chloro-4-trifluoromethoxy-benzyloxy)-phenoxy]-azetidine] | 130 nM
N#Cc1ccc(COc2ccc(Cl)cc2OC2CNC2)cc1 [Example 44, 4-[2-(Azetidin-3-yloxy)-4-chloro-phenoxymethyl]-benzonitrile] | 87 nM
FC(F)(F)Sc1ccc(COc2ccc(Cl)cc2OC2CNC2)cc1 [Example 46, 3-[5-Chloro-2-(4-trifluoromethylsulfanyl-benzyloxy)-phenoxy]-azetidine] | 102 nM
Fc1cc(C(F)(F)F)ccc1COc1ccc(Cl)cc1OC1CNC1 [Example 48, 3-[5-Chloro-2-(2-fluoro-4-trifluoromethyl-benzyloxy)-phenoxy]-azetidine] | 88 nM
CCOC(=O)c1ccc(COc2ccc(Cl)cc2OC2CNC2)o1 [Example 55, 5-[2-(Azetidin-3-yloxy)-4-chloro-phenoxymethyl]-furan-2-carboxylic acid ethyl ester] | 171 nM
CS(=O)(=O)c1cc(Cl)ccc1COc1ccc(Cl)cc1OC1CNC1 [Example 56, 3-[5-Chloro-2-(4-chloro-2-methanesulfonyl-benzyloxy)-phenoxy]-azetidine] | 9000 nM

The remaining lines, values ahead:

Ki | Compound
90 nM | CC(Oc1ccc(Cl)cc1OC1CNC1)c1ccc(C(F)(F)F)c(F)c1 (racemic) [Example 118, (±)-3-[5-Chloro-2-[1-(3-fluoro-4-trifluoromethyl-phenyl)-ethoxy]-phenoxy]-azetidine]
288 nM | CC(Oc1ccc(Cl)cc1OC1CNC1)c1cc(F)cc(C(F)(F)F)c1 (racemic) [Example 119, (±)-3-[5-Chloro-2-[1-(3-fluoro-5-trifluoromethyl-phenyl)-ethoxy]-phenoxy]-azetidine]
40 nM | CC(Oc1ccc(Cl)cc1OC1CNC1)c1cccc(SC(F)(F)F)c1 (racemic) [Example 120, (±)-3-[5-Chloro-2-[1-(3-trifluoromethylsulfanyl-phenyl)-ethoxy]-phenoxy]-azetidine]
210 nM | CC(Oc1ccc(Cl)cc1OC1CNC1)c1ccccc1C(F)(F)F (racemic) [Example 122, (±)-3-[5-Chloro-2-[1-(2-trifluoromethyl-phenyl)-ethoxy]-phenoxy]-azetidine]
104 nM | CC(Oc1ccc(Cl)cc1OC1CNC1)c1cccc(C#N)c1 (racemic) [Example 125, (±)-3-[1-[2-(Azetidin-3-yloxy)-4-chloro-phenoxy]-ethyl]-benzonitrile]
38 nM | CC(Oc1ccc(Cl)cc1OC1CNC1)c1ccc(Cl)c(Cl)c1 (racemic) [Example 126, (±)-3-[5-Chloro-2-[1-(3,4-dichloro-phenyl)-ethoxy]-phenoxy]-azetidine]
63 nM | CC(Oc1ccc(Cl)cc1OC1CNC1)c1cccc(OC(F)(F)F)c1 (racemic) [Example 127, (±)-3-[5-Chloro-2-[1-(3-trifluoromethoxy-phenyl)-ethoxy]-phenoxy]azetidine]
127 nM | CC(Oc1ccc(Cl)cc1OC1CNC1)c1ccc(F)c(F)c1 (racemic) [Example 128, (±)-3-[5-Chloro-2-[1-(3,4-difluoro-phenyl)-ethoxy]-phenoxy]-azetidine trifluoroacetate]
903 nM | CC(Oc1ccc(Cl)cc1OC1CNC1)c1cc(Cl)ccc1Cl (racemic) [Example 129, (±)-3-[5-Chloro-2-[1-(2,5-dichloro-phenyl)-ethoxy]-phenoxy]-azetidine trifluoroacetate]
371 nM | CC(Oc1ccc(Cl)cc1OC1CNC1)c1cc(F)ccc1F (racemic) [Example 130, (±)-3-[5-Chloro-2-[1-(2,5-difluoro-phenyl)-ethoxy]-phenoxy]-azetidine trifluoroacetate]
472 nM | CC(Oc1ccc(Cl)cc1OC1CCNCC1)c1cccc(OC(F)(F)F)c1 (racemic) [Example 137, (±)-4-[5-Chloro-2-[1-(3-trifluoromethoxy-phenyl)-ethoxy]-phenoxy]-piperidine]
42 nM | CC(Oc1ccc(Cl)cc1OC1CCNCC1)c1ccccc1F (racemic) [Example 138, (±)-4-[5-Chloro-2-[1-(2-fluoro-phenyl)-ethoxy]-phenoxy]-piperidine]
230 nM | CCC(Oc1ccc(Cl)cc1OC1CNC1)c1cccc(C(F)(F)F)c1 (racemic) [Example 140, (±)-3-[5-Chloro-2-[1-(3-trifluoromethyl-phenyl)-propoxy]-phenoxy]-azetidine]
450 nM | CCC(Oc1ccc(Cl)cc1OC1CCNCC1)c1cccc(C(F)(F)F)c1 (racemic) [Example 141, (±)-4-[5-Chloro-2-[1-(3-trifluoromethyl-phenyl)-propoxy]-phenoxy]-piperidine]
304 nM | FCC(Oc1ccc(Cl)cc1OC1CCNCC1)c1ccccc1 (racemic) [Example 144, (±)-4-[5-Chloro-2-(2-fluoro-1-phenyl-ethoxy)-phenoxy]-piperidine]
